Data on one compound can be found in patent publication US6339098B1, “2,1-benzisothiazoline 2,2-dioxides” (American Home Products Corporation, priority 1999, dated 2002).

For the test, the target named is T1, human PR (hPR-B) (Homo sapiens, UniProt P06401).
T1 construct: expressed in transfected cells; host or cells: CV-1 cells (electroporation with pLEM-hPR-B and pGL3-2xPRE-luciferase)
T1 sequence (P06401 1-933): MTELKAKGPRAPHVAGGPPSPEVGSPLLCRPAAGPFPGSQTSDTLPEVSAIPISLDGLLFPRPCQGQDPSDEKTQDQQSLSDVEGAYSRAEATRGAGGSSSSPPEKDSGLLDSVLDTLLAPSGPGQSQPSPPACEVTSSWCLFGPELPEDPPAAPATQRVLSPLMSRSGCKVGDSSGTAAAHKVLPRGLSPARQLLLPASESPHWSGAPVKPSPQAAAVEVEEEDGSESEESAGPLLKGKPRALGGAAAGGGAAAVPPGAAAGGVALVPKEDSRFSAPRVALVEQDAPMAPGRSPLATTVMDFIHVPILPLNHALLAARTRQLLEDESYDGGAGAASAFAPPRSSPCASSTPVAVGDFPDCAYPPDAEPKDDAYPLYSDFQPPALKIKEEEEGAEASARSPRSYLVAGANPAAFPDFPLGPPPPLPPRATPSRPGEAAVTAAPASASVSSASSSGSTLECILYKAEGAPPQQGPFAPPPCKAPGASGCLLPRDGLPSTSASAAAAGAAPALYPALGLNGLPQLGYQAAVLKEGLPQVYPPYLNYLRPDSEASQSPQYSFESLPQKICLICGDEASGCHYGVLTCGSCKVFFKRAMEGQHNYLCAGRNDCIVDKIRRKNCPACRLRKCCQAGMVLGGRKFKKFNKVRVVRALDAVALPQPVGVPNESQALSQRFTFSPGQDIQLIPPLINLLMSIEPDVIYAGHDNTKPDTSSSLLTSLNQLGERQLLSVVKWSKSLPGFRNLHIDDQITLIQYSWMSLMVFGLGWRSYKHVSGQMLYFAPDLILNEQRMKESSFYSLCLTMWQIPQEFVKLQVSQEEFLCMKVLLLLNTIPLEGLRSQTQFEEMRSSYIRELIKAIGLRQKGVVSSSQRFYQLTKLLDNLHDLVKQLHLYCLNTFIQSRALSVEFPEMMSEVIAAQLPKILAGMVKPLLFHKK
The experiment in a line: PRE-luciferase reporter activity in CV-1 cells co-transfected with human PR and PRE-luciferase plasmids (antiprogestational activity). It counts as cell-based. Particulars: CV-1 cells co-transfected with hPR-B and PRE-luciferase; in the presence of 3 nM progesterone; 24 h treatment; read-out: IC50 (concentration giving half-maximal decrease in 3 nM progesterone induced PRE-luciferase activity). How it is done:
The procedure used and results obtained are described in Example 2 below.
Growth medium: DMEM (BioWhittaker) containing 10% (v/v) fetal bovine serum (heat inactivated), 0.1 mM MEM non-essential amino acids, 100 U/ml penicillin, […] streptomycin, and 2 mM GlutaMax (GIBCO, BRL).
Experimental medium: DMEM (BioWhittaker), phenol red-free, containing 10% (v/v) charcoal-stripped fetal bovine serum (heat-inactivated), 0.1 mM MEM non-essential amino acids, 100 U/ml penicillin, […] streptomycin, and 2 mM GlutaMax (GIBCO, BRL).
Stock CV-1 cells were maintained in growth medium. Co-transfection was done using 1.2×10^7 cells, 5 mg pLEM plasmid with hPR-B inserted at Sph1 and BamH1 sites, 10 mg pGL3 plasmid with two PREs upstream of the luciferase sequence, and 50 mg sonicated calf thymus DNA as carrier DNA in […]. Electroporation was carried out at 260 V and […] in a Biorad Gene Pulser II. After electroporation, cells were resuspended in growth medium and plated in 96-well plate at 40,000 cells/well in […]. Following overnight incubation, the medium was changed to experimental medium Cells were then treated with reference or test compounds in experimental medium. Compounds were tested for antiprogestational activity in the presence of 3 nM progesterone. […] Luciferase activity was measured using luciferase reagents from Promega. […]

Regarding `O=S1(=O)Nc2ccc(-c3cccc(Cl)c3)cc2C12CCCCC2` [Example 1], the IC50 came out at 900 nM.
